Data from US8124655B2, “Use of LR-90 and LR-102 to overcome insulin resistance” (City of Hope, priority 2007, dated 2012).

Test system: Zucker diabetic fatty rats (ZDF, fa/fa)
Assay: Pancreatic islet immunohistochemistry and PAMS staining (Example 2)
Format: in vivo, rat
Excerpt: FIG. 7. Immunohistochemical analysis and quantification of islet cells. ZDF GM fa/fa rats and lean control rats were fed with high fat diet for 30 weeks and received either nothing or LR-90 or LR-102 in their drinking water. Pancreatic sections from various groups of animals were stained with anti-insulin antibody or anti-glucagon antibody. A. Representative images with the overlay of the insulin (green) and glucagon (red staining). […] B. Insulin-positive β-cell-to-glucagon-ratio was also measured from these images.
FIG. 8. Periodic acid methenamine silver (PAMS) staining of pancreatic tissues. Sections from cryopreserved pancreas of each group of animals on the study were stained with PAMS and examined under light microscopy.
LR-90 at 50 mg/L of drinking water was given to a subgroup of ZDF rats after the rats developed spontaneous diabetes at 13 weeks of age. At 40 weeks of age, and before killing the animals, their weight was measured; HbA1c, plasma glucose, insulin, triglycerides, cholesterol, CRP and urinary albumin and creatinine concentrations were measured. After euthanizing all animals, organs such as the kidneys, eyeballs, liver, heart, aortae and pancreas were dissected and subjected to immunohistochemical staining, RT-PCR, Western blotting and microscopy.

CC(C)(Oc1ccc(NC(=O)Nc2ccc(Cc3ccc(NC(=O)Nc4ccc(OC(C)(C)C(=O)O)cc4)c(Cl)c3)cc2Cl)cc1)C(=O)O [LR-90, methylene bis[4,4′-(2-chlorophenylureidophenoxyisobutyric acid)]]
PAMS staining of pancreatic islets (FIG. 8): amelioration
number of undamaged insulin-secreting islet cells in the pancreas (FIGS. 7 and 8): significantly higher number
